Data: US12630589B2, “Compounds for use in viral infections” (priority 2020, dated 2026)
pEC50: −log10 of the molar value. Like-named read-outs stand apart in the source and are kept apart here.

Experiments:
[1] = Plasma pharmacokinetics in mouse (Table 1); format: in vivo; details: Mouse (F) C57BL6/J, 1.0 mg/kg single intravenous bolus
[2] = system: IL-6, IL-10 and TNFα secretion; assay: Ex vivo LPS-B5-triggered cytokine secretion in bronchoalveolar lavage cells of treated mice; design: species or system mouse
Description: We checked whether plitidepsin inhibits the LPS-trigged cytokine secretion in alveolar macrophages. To that end mice were injected i.v. with plitidepsin (1 mg/kg) or vehicle and 12 hours after administration bronchoalveolar lavage fluid (BAL) was collected. Cells were plated and treated ex-vivo or not with 15 μg/mL of LPS-B5 for 3 or 6 hours and secreted cytokines were measured.
Mice were randomized into groups of five animals to receive the treatments. Mice were injected intra venous (i.v.) with plitidepsin (1 mg/kg) and 12 hours after administration were euthanised. Control group received plitidepsin vehicle diluted with saline (Cremophor/Ethanol/Water). Bronchoalveolar lavage fluid (BAL) of each group was collected and centrifugated to obtain bronchoalveolar lavage cells. Cells underwent red blood cell lysis (Roche) and were plated and treated ex-vivo or not with 15 μg/mL of LPS-B5 for 3 or 6 hours. Secreted cytokines were measured using highly specific and sensitive ELISA kits. Mouse IL-6, mouse IL-10 and mouse TNF DuoSet ELISA kits were obtained from R&D Systems and performed as described by the manufacturer.

[3] = system: NF-κB; assay: NF-κB transactivation luciferase assay in THP-1 cells; format: cell-based, human; details: THP-1 NF-κB-Luc cells, 100 nM plitidepsin, 6 hours, with poly I:C, LPS-B5 or Resiquimod
Description: To that end, we took advantage of THP-1 cells stably transfected with an NFκB luciferase reporter plasmid. We treated the cells with 100 ng/mL TNFα (an activator of NF-κB), 500 μg/mL poly I:C (TLR3 ligand), 10 μg/mL LPS-B5 (TLR4 ligand) or 10 g/mL Resiquimod (TLR-7/8 ligand). The compounds were used either alone (FIG. 1A grey bars) or combined with 100 nM of plitidepsin (FIG. 1A black bars) for 6 hours, and quantified the luciferase activity under each condition.
NF-κB transactivation was assayed using the Bright-Glo™ Luciferase Assay System following the manufacturer's instructions. The NF-κB reporter (Luc)-THP-1 human monocytic, cells stably transfected with NF-κB-Luc plasmid (containing four NF-κB binding sites, a minimal promoter and a luciferase gene), were exposed to 100 ng/mL TNFα (positive control), 500 μg/mL poly (I:C) (Polyinosinic-polycytidylic), 10 μg/mL LPS-B5 (Lipopolysaccharide from Escherichia coli 055:B5) or 10 g/mL Resiquimod. The compounds were used either alone or combined with 100 nM plitidepsin for 6 hours. Luminescence was measured in a Perkin-Elmer EnVision reader. A MTT (3-(4,5-dimethylthiazol-2-yl)-2,5-diphenyltetrazolium bromide) cell proliferation assay was simultaneously performed to control the cytotoxicity of the compounds. Cell survival was expressed as percentage of control cell growth. […]

[4] = system: WNV-GFP (lineage 2; molecular clone WN956)
[5] = system: WNV-GFP (lineage 2; molecular clone WN956); assay: WNV-GFP infection efficiency in Huh7 cells; format: cell-based, West Nile virus
[6] = system: WNV-NY99 (lineage 1); assay: WNV/NY99 extracellular infectivity titers, Huh-7 cells; format: cell-based, West Nile virus; details: 45 nM, MOI 0.01, 48 hours
[7] = system: IL-1, IL-6, IL-8 and TNFα secretion; assay: ELISA assays for secreted cytokines in THP-1 cells; format: cell-based, human; details: 100 nM plitidepsin, 6 hours, TLR ligands
Description: To investigate whether plitidepsin inhibits the TLR-trigged cytokine secretion, we treated THP-1 cells with 100 ng/mL TNFα (an activator of NF-κB), 500 μg/mL poly I:C (TLR3 ligand), 10 g/mL LPS-B5 (TLR4 ligand) or 10 g/mL Resiquimod (TLR-7/8 ligand). The compounds were used either alone (grey bars) or combined with 100 nM of plitidepsin (red bars) for 6 hours. We compared the variations in cytokine secretion in the cell culture supernatants between the different treatments by ELISA assays.
THP1-NFκB-LUC cell cultures were treated as described above, and the culture medium was sampled at 6 hours post-treatment to assay for secreted cytokines by ELISA. Media samples were stored at 4° C. IL-8, IL-1β, IL-6 and TNF□ protein secretion into culture medium was quantitated using highly specific and sensitive ELISA kits. Human IL-1b, human IL-6, human IL-8 and human TNF OptEIA™ ELISA kits were obtained from BD Biosciences and performed as described by the manufacturer. The data presented are the average of three independent experiments performed in triplicate.

[8] = system: TNFα; assay: Resiquimod-triggered TNFα secretion in BALF of mice; format: in vivo; details: mice 1 mg/kg i.v. 1 hour before 50 μg/mouse intranasal RQ; 1 or 3 hours
[9] = system: THP-1 human monocytic cells; assay: MTT cell proliferation assay (compound-induced cytotoxicity); details: activators combined with 100 nM plitidepsin, 6 hours
Description: To that end, we took advantage of THP-1 cells stably transfected with an NFκB luciferase reporter plasmid. We treated the cells with 100 ng/mL TNFα (an activator of NF-κB), 500 μg/mL poly I:C (TLR3 ligand), 10 μg/mL LPS-B5 (TLR4 ligand) or 10 g/mL Resiquimod (TLR-7/8 ligand). The compounds were used either alone (FIG. 1A grey bars) or combined with 100 nM of plitidepsin (FIG. 1A black bars) for 6 hours, and quantified the luciferase activity under each condition. […] Survival was analysed with the MTT assay (FIG. 1B grey bars (activators) and red bars (activators combined with 100 nM of plitidepsin)).
NF-κB transactivation was assayed using the Bright-Glo™ Luciferase Assay System following the manufacturer's instructions. […] Luminescence was measured in a Perkin-Elmer EnVision reader. […] Cell survival was expressed as percentage of control cell growth. […]
Cells were seeded in 96 well microtiter plates and allowed to stand for 24 hours at 37° C. and 5% CO2 before treatment described above. After 6 hours of continuous treatment, cellular viability was estimated from conversion of MTT to its coloured reaction product, MTT formazan, which was dissolved to measure its absorbance at 540 nm. […]

[10] = system: VeroE6 cells; assay: Cell biomass (DAPI) in VeroE6 cells; format: cell-based, African green monkey; details: 48 hours
Description: (§1) Relative infection efficiency was assessed by automated fluorescence microscopy in the green channel and overall cell biomass/well was estimated by nuclear staining with DAPI in the blue channel, as a preliminary assessment of the compound effective doses as well as overall compound cytotoxicity.
(§2) Infection experiments: Cells were seeded onto 96-well plates (2×10^4 cells/well). The day after, serial 5-fold dilutions of plitidepsin were prepared in 2% FCS-containing complete media to achieve the indicated final concentrations. WNV-GFP stock was diluted in complete media containing 2% FCS to achieve the required multiplicity of infection (MOI 0.01). Compound and virus dilutions were mixed 1:1 and added onto the target cells. Cells were incubated for 48 hours at 37° C.; 5% CO2 and 95% humidity.
(§3) Cells were fixed by addition of a 5× formaldehyde solution to achieve a 4% final concentration for 30 mins at room temperature. Cells were washed with PBS and stained with DAPI (4′,6-diamidino-2-phenylindole) following manufacturer's recommendations. Relative infection efficiency was estimated by image analysis in an automated microscopy device (Tecan Spark Cyto). Uninfected cells and vehicle-treated controls were included in each plate.

[11] = system: WNV-NY99 (lineage 1); assay: Intracellular WNV RNA load by RT-qPCR, Huh-7 cells; format: cell-based, West Nile virus; details: 48 hours
[12] = system: THP-1 cells; assay: Cell viability after plitidepsin pre-treatment and Resiquimod stimulus; format: cell-based, human; details: 1, 10 or 50 nM, Resiquimod 2.5 or 5 μg/mL, 24 hours
Description: (§4) In a further in vitro experiment, the effect of plitidepsin (APL) pre-treatment on THP-1 cells was studied. Using a THP-1 NFκB luc line, 1, 10 or 50 nM of APL or DMSO (0.2%) was added 8 hours before stimulus with Resiquimod (RQ) at 2.5 or 5 μg/mL. RQ is a TLR7/8 agonist and mimics ssRNA. At 24 hours the level of cytokines or cell viability was measured.

[13] = system: Huh7 cells; assay: Cell biomass (DAPI) in Huh7 cells; format: cell-based, human; details: 48 hours
Description: as §1, §2, §3

[14] = system: IL6, IL8, IL1β and TNF-α secretion; assay: Plitidepsin pre-treatment of THP-1 cells before Resiquimod stimulus, cytokine secretion; format: cell-based, human; details: 1, 10 or 50 nM added 8 hours before Resiquimod 2.5 or 5 μg/mL; read at 24 hours
Description: as §4

[15] = system: WNV-NY99 (lineage 1); assay: WNV/NY99 extracellular infectivity titers, Vero-E6 cells; format: cell-based, West Nile virus; details: VeroE6 cells, 45 nM, MOI 0.01, 48 hours
[16] = system: WNV-NY99 (lineage 1); assay: Intracellular WNV RNA load by RT-qPCR, Vero-E6 cells; format: cell-based, West Nile virus; details: 48 hours
[17] = system: alveolar macrophages; assay: Alveolar macrophage recruitment in mice (LPS inflammation model, flow cytometry); details: for macrophages in bronchoalveolar lavage: single iv administration
Source text: Also we checked the effect of plitidepsin on alveolar macrophage recruitment. Viral infection also leads to the activation of macrophages. Activated macrophages are twice the size of resting macrophages and are more “aggressive”, having increased levels of lysosomal proteins and a greater ability to phagocytose. Classically activated macrophages also release proteases, neutrophil chemotactic factors, reactive oxygen species and pro-inflammatory cytokines (such as IL-1 beta/IL-1F2, IL-6, and TNF-alpha/TNFSF1A), leading to inflammation and tissue destruction. Bronchoalveolar lavage cells were stained and analyced by flow cytometry.
To investigate whether plitidepsin decreases the percentage of alveolar macrophage in animals with acute inflammation, we treated mice with plitidepsin (1 mg/kg) i.v., with LPS (20 μg/kg) i.p. in sterile saline or with plitidepsin (1 mg/kg; i.v.) in combination with LPS (20 μg/kg, i.p.). Three hours later, bronchoalveolar lavages were collected. Bronchoalveolar lavage cells were obtained by centrifugation and analyzed by flow cytometry (FIG. 4b). Upper panels show the strategy of analysis of macrophage population present in the samples. Lower right panel show the same result expressed as percentage of cells. Lower left panel show the percentage of CD45+(leucocyte marker) alive cells.
Bronchoalveolar lavage cells were obtained by centrifugation and analyzed by flow cytometry.
Bronchoalveolar lavage cells were stained with anti-F4/80-BV510, CD45-APC700, CD11b-BV650, CD11c-APC-Fire, CD24-PC7 and Ly6C-BV605 monoclonal antibodies (Biolegend) and a LIVE/DEAD™ Fixable Green Dead Cell Stain Kit, for 488 nm excitation (Thermofisher). Macrophages (F4/80+) were gated on alive immune cells (CD45+ LIVE/DEAD dye−), while alveolar macrophages (F4/80+CD24−) were specifically gated on CD11c+CD11b− population from alive immune cells. Isotype controls and compensation beads were used to set compensations and gating strategies.

(−)-(3S,6R,7S,10R,11S,15S,17S,20S,25aS)-11-hydroxy-3-(4-methoxybenzyl)-2,6,17-trimethyl-15-(1-methylethyl)-7-[[(2R)-4-methyl-2-[methyl[[(2S)-1-(2-oxopropanoyl)pyrrolidin-2-yl]carbonyl]amino]pentanoyl]amino]-10-[(1S)-1-methylpropyl]-20-(2-methylpropyl)tetradecahydro-15H-pyrrolo[2,1-f]-[1,15,4,7,10,20]dioxatetrazacyclotricosine-1,4,8,13,16,18,21(17H)-heptone [PLD]
Cl [1]: 73.3 mL/min/kg
production of IL-6 and TNF-α induced by LPS ([2]; mice 1 mg/kg i.v., BAL at 12 hours, cells treated ex vivo with 15 μg/mL LPS-B5 for 3 or 6 hours): clearly inhibited the production of pro-inflammatory cytokines IL-6, and TNF-α
secretion of IL-6, IL-10 and TNFα induced by LPS-B5 in CD45+ cells from broncho-alveolar lavages ([2]; treated animals, 3 and 6 hours): significantly reduce the secretion of IL-6, IL-10 and TNFα
NF-κB transactivation (production of luciferase) [3]: clearly inhibited the production of luciferase
concentration with antiviral activity in the absence of measurable interference with cell viability (p<0.05) ([4]; Vero-E6 cells): 7.2 nM
therapeutic index (ratio CC50/EC50) ([4]; VeroE6 cells): 475
concentration at which infection efficiency reaches background fluorescence levels ([4]; VeroE6 cells, 48 hours): ≥ 36 nM
pEC50 ([4]; read-out: EC50, WNV-GFP infection efficiency, VeroE6 cells, MOI 0.01, 48 hours): 8.31
EC90 ([4]; read-out: EC90, WNV-GFP infection efficiency, VeroE6 cells, MOI 0.01, 48 hours): 9.5 nM
pEC50 ([5]; Huh7 cells, MOI 0.01, 48 hours): 9.18
EC90 ([5]; Huh7 cells, MOI 0.01, 48 hours): 3.86 nM
concentration with antiviral activity in the absence of measurable interference with cell viability (p<0.05) ([5]; Huh-7 cells): 1.5 nM
reduction of extracellular infectivity titers [6]: > 3 orders of magnitude
production of IL-1, IL-6, IL-8 and TNFα (ELISA) [7]: clearly inhibited the production of IL-1, IL-6, IL-8 and TNFα
production of TNFα induced by Resiquimod in BALF [8]: prevented the increased production of TNFα
cytotoxic effect (survival, MTT assay) [9]: No cytotoxic effect was detected
concentration at which cell number significantly decreased (p<0.05) [10]: 180 nM
concentration up to which cell number remained unchanged [10]: up to 36 nM
CC50 ([10]; read-out: CC50 based on the cell biomass): 2330 nM
intracellular viral RNA load ([11]; 15 nM): marked reduction in viral load
RNA recovery from cells ([11]; 45 nM): no RNA could be recovered
cell viability over the untreated control [12]: does not decrease viability over the untreated control
CC50 [13]: 14.7 nM
concentration at which loss of cell biomass is statistically significant (p<0.05) [13]: 7.2 nM
secretion of IL6, IL8, IL1β and TNF-α induced by RQ [14]: inhibited secretion of the pro-inflammatory cytokines: IL6, IL8, IL1β and TNF-α
reduction of extracellular infectivity titers [15]: > 3 orders of magnitude
intracellular viral RNA load ([16]; 5 and 1.5 nM): not distinguishable from those in the control
intracellular viral RNA load ([16]; 15 and 45 nM): significantly decreased in a dose-dependent manner
cytotoxic effects on bronchoalveolar lavage cells ([17]; 1 mg/kg i.v.): without cytotoxic effects
percentage of macrophages present on bronchoalveolar lavage ([17]; plitidepsin 1 mg/kg i.v. with LPS 20 μg/kg i.p., 3 hours): decrease the percentage of macrophages
macrophages in bronchoalveolar lavage [17]: reduces the number of macrophages in BAL
macrophages in bronchoalveolar lavage ([17]; listed as Plitidepsin): decreased the percentage of macrophages
